Where two headings read alike, the source gives them in different places.
What was measured:
[1] = system: sucrose loaded normoglycaemic rats; assay: Antihyperglycaemic activity on sucrose loaded normoglycaemic rats (SLM); assay type: in vivo, rat; settings: for Blood Glucose Profile 0 min: 0 min (fasting baseline); for Blood Glucose Profile 0 min / Blood Glucose Profile 30 min / Blood Glucose Profile 60 min / Blood Glucose Profile 90 min / Blood Glucose Profile 120 min / % Antihyperglycaemic activity SLM: sucrose loaded normoglycaemic rats, compounds 100 mg/kg, Januvia 50 mg/kg; for Blood Glucose Profile 0 min / Blood Glucose Profile 30 min / Blood Glucose Profile 60 min / Blood Glucose Profile 90 min / Blood Glucose Profile 120 min: mean ± S.E.; for Blood Glucose Profile 30 min: 30 min post sucrose; for Blood Glucose Profile 60 min: 60 min post sucrose; for Blood Glucose Profile 90 min: 90 min post sucrose; for Blood Glucose Profile 120 min: 120 min post sucrose; for % Antihyperglycaemic activity SLM: AUC vs control, oral; for improvement in glucose tolerance: sucrose loaded normoglycemic rats, 100 mg/kg b.w., result in words
Protocol: (§1) The test compounds and standard antidiabetic drug Januvia were prepared in 1.0% freshly prepared Gum acacia.
Assessment of Test Compounds for Antihyperglycaemic Activity on Sucrose Loaded Normoglycaemic Rats—
In order to search towards the antidiabetic activity, synthetic compounds were preliminary evaluated for their effect on glucose tolerance in normal rats. It is an indirect effect of measuring antihyperglycaemic activity. Male albino rats of Wistar strain of body weight 160±20 g were selected for this study. The blood glucose of each animal was checked by glucometer using glucostrips (Accu-check) after 16 hours starvation. Animals showing blood glucose between 60 to 80 mg/dl (3.33 to 4.44 mM) were divided into groups of five to six animals in each. Rats of experimental group were administered suspension of the desired test compound orally (made in 1.0% gum acacia). The standard dose decided for Synthetic compounds is 100 mg/kg body weight. Animals of control group were given an equal amount of 1.0% gum acacia. A sucrose load (10.0 g/kg) was given to each animal orally exactly after 30 min post administration of the test sample/vehicle. Blood glucose profile of each rat was again determined at 30, 60, 90 and 120 min post administration of sucrose by glucometer. Food but not water was withheld from the cages during the course of experimentation. Quantitative glucose tolerance of each animal was calculated by area under curve (AUC) method using Prism Software. Comparing the AUC of experimental and control groups determined the percentage antihyperglycaemic activity. Statistical comparison was made by Dunnett's test.
(§2) Quantitative glucose tolerance of each animal was calculated by the area under the curve (AUC) method using Prism Software. The area under the curve of the control group and the experimental group was compared to determine the percent antihyperglycaemic activity. Statistical comparisons were performed by one-way analysis of variance (ANOVA), followed by Dunnett's multiple range test (DMRT). The results were considered statistically significant if the ‘p’ values were 0.05 or less. Results were expressed as mean±SEM.

[2] = system: low dosed STZ induced diabetic rats; assay: Antihyperglycaemic activity in low dosed streptozotocin induced diabetic rats (STZ); assay type: in vivo, rat; settings: for Blood Glucose Profile 0 min (Pre treatment): 0 min pre treatment (fasting baseline); for Blood Glucose Profile 0 min (Pre treatment) / Blood Glucose Profile 30 min (Post treatment) / Blood Glucose Profile 60 min (Post treatment) / Blood Glucose Profile 90 min (Post treatment) / Blood Glucose Profile 120 min (Post treatment) / Blood Glucose Profile 180 min (Post treatment) / Blood Glucose Profile 240 min (Post treatment) / Blood Glucose Profile 300 min (Post treatment) / Blood Glucose Profile 1440 min (Post treatment) / % Antihyperglycaemic activity STZ 0-5 h AUC / % Antihyperglycaemic activity STZ 0-24 h AUC: low dosed STZ diabetic rats, compounds 100 mg/kg, Januvia 50 mg/kg; for % Antihyperglycaemic activity STZ 0-5 h AUC / % Antihyperglycaemic activity STZ 0-24 h AUC: oral; for lowering in the hyperglycaemia of the diabetic rats: low dosed streptozotocin induced diabetic rats, 100 mg/kg, result in words
Protocol: as §1
Assessment of Test Compounds for Antihyperglycaemic Activity in Low Dosed Streptozotocin Induced Diabetic Rats—
Induction of Diabetes in Rats:
Overnight starved male albino rats of Sprague Dawley strain were used and Diabetes was induced in the animals by single intraperitoneal injection of Streptozotocin at 60 mg/kg body weight dose prepared in 0.1M citrate buffer (pH 4.5). Fasting blood glucose level was measured by using a Glucometer (ACCU-CHEK II; Roche Diagnostics, USA) after 48 hours and animals showing blood glucose level above 300 mg/di were considered as diabetic.
The diabetic animals were divided into four groups (Group 1 to 4) each consisting 6 rats. Group 1 received 0.4 ml vehicle (1% gum acacia). Group 2 received the test compound 5 at an oral dose of 100 mg/kg/body weight. Group 3 was given compound 6 at an oral dose of 100 mg/kg/body weight. The standard antidiabetic drug Januvia was given to the animals of Group 4 at an oral dose of 50 mg/kg body weight. […] Food but not water was withheld from the cages during the course of experimentation. Percent hyperglycemic activity was determined by comparing the AUC (area under curve) of experimental groups with that of the vehicle treated control group.
as §2

[3] = molecular target: T1, human recombinant PTP1B enzyme (Homo sapiens, UniProt P18031); assay: Protein tyrosine phosphatase-1B assay (colorimetric kit BML-AK 822); assay type: biochemical; settings: for inhibition at 0.3 µM: read-out: % Inhibition at different Inhibitor concentration 0.3 μM; for inhibition at 1 µM: read-out: % Inhibition at different Inhibitor concentration 1 μM; for inhibition at 3 µM: read-out: % Inhibition at different Inhibitor concentration 3 μM; for inhibition at 5 µM: read-out: % Inhibition at different Inhibitor concentration 5 μM; for IC50: from % inhibition at 5 concentrations 0.3-10 μM
T1 construct: purchased Enzo Life Sciences, USA BML-AK 822
T1 sequence (P18031 1-322 limits assumed): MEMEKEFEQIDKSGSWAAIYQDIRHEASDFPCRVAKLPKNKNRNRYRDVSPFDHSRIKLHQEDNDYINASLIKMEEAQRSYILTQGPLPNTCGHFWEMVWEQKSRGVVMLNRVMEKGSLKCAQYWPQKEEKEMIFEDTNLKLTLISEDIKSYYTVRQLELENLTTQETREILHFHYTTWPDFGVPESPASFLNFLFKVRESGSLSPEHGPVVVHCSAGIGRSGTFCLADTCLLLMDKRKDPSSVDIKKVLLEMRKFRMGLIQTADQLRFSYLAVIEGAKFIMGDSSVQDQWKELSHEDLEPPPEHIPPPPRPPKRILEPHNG
Protocol: Assay was done according to the Kit manufacturers protocol, in brief the reaction was carried out in 96 well flat bottomed microtiter plate by the addition of assay buffer, solution of test compounds and diluted PTP1B enzyme. Enzyme reaction was initiated by addition of 50 μl of warmed 2× substrate then incubated the plate at 30° C. for 30 min. After incubation for 30 min. Reaction was terminated by addition of 25 μl of biomol red reagent and mixed thoroughly by repeated pipetting. […] Volumes and dilution of other component were accordingly as instructed in the manual provided in the kit. PTP1B phosphatase acting on the phosphopeptide substrate and release phosphate. The detection of free phosphate released is based on classic Malachite green assay. After adding biomol red to reaction wells after 30 minutes of incubation as described earlier the plate was incubated for another 20 min to develop the colour. Absorbance was recorded at 620 nm. on a microplate reader.

[4] = Table 5, evaluated at 10 μM concentration, read-out: % Inhibition (PTP-1B)
[5] = Table 6 dose response, 10 μM, read-out: % Inhibition at different Inhibitor concentration 10 μM

SMILES	Blood Glucose Profile 0 min [1] [mg/dL]	Blood Glucose Profile 30 min [1] [mg/dL]	Blood Glucose Profile 60 min [1] [mg/dL]	Blood Glucose Profile 90 min [1] [mg/dL]	Blood Glucose Profile 120 min [1] [mg/dL]	% Antihyperglycaemic activity SLM [1] [%]	improvement in glucose tolerance [1]	Blood Glucose Profile 0 min (Pre treatment) [2] [mg/dL]	Blood Glucose Profile 30 min (Post treatment) [2] [mg/dL]	Blood Glucose Profile 60 min (Post treatment) [2] [mg/dL]	Blood Glucose Profile 90 min (Post treatment) [2] [mg/dL]	Blood Glucose Profile 120 min (Post treatment) [2] [mg/dL]	Blood Glucose Profile 180 min (Post treatment) [2] [mg/dL]	Blood Glucose Profile 240 min (Post treatment) [2] [mg/dL]	Blood Glucose Profile 300 min (Post treatment) [2] [mg/dL]	Blood Glucose Profile 1440 min (Post treatment) [2] [mg/dL]	% Antihyperglycaemic activity STZ 0-5 h AUC [2] [%]	% Antihyperglycaemic activity STZ 0-24 h AUC [2] [%]	lowering in the hyperglycaemia of the diabetic rats [2]	inhibition at 10 µM [3, 4] [%]	further results
COC(=O)c1c(SC)cc(-c2ccc(C)cc2)c2c1-c1cn(-c3ccccc3)nc1CC2 [compound 5, methyl 8-(methylthio)-2-phenyl-6-p-tolyl-4,5-dihydro-2H-benzo[e]indazole-9-carboxylate]	66.2 ± 3.05	107.4 ± 7.76	104.8 ± 5.12	108.3 ± 3.59	109.8 ± 7.86	35.8	significant improvement in glucose tolerance	346.6 ± 6.19	434.2 ± 12.4	481.2 ± 11.8	447.0 ± 8.16	434.8 ± 11.7	385.6 ± 5.8	353.6 ± 16.4	362.4 ± 17.6	483.0 ± 3.95	23.1	18.2	significant lowering in the hyperglycaemia	83.8	inhibition at 0.3 µM ([3]; Table 6 dose response): 3.89%; inhibition at 1 µM ([3]; Table 6 dose response): 13.2%; inhibition at 3 µM ([3]; Table 6 dose response): 24.1%; inhibition at 5 µM ([3]; Table 6 dose response): 36.7%; inhibition at 10 µM [3, 5]: 67.8%; IC50 [3]: 7.12 µM; melting point: 178 to 180 °C
COC(=O)c1c(SC)cc(-c2cccc3ccccc23)c2c1-c1cn(-c3ccccc3)nc1CC2 [compound 6, methyl 8-(methylthio)-6-(naphthalen-1-yl)-2-phenyl-4,5-dihydro-2H-benzo[e]indazole-9-carboxylate]	66.2 ± 2.63	120.0 ± 7.30	111.2 ± 7.30	110.4 ± 4.73	107.4 ± 4.95	23.5	significant improvement in glucose tolerance	344.0 ± 3.91	444.6 ± 16.6	492.0 ± 13.6	490.2 ± 11.2	474.8 ± 15.0	426.0 ± 16.0	385.8 ± 15.6	355 ± 14.3	442.4 ± 9.64	18.9	20.1	significant lowering in the hyperglycaemia	76.9	inhibition at 0.3 µM ([3]; Table 6 dose response): 0.5%; inhibition at 1 µM ([3]; Table 6 dose response): 11.2%; inhibition at 3 µM ([3]; Table 6 dose response): 16.2%; inhibition at 5 µM ([3]; Table 6 dose response): 28.8%; inhibition at 10 µM [3, 5]: 62.3%; IC50 [3]: 8.12 µM; melting point: 182 to 184 °C

Source: US9096539B2, “Substituted 4,5-dihydro-2H-benzo[e]indazole-9-carboxylates for the treatment of diabetes and related disorders” (Council of Scientific & Industrial Research, priority 2012, dated 2015)
